# Results reported in patent publication US20240124504A1, “AROMATIC HETEROCYCLIC COMPOUND, AND PHARMACEUTICAL COMPOSITION AND APPLICATION THEREOF” (GT APEIRON THERAPEUTICS LIMITED, priority 2020, published 2024).
# pIC50: −log10 of the molar value.
# Legend:
# CDK2/cyclinE1 complex = CDK2/cyclinE1 complex (Homo sapiens, UniProt P24941); experiment: In-vitro enzymatic inhibitory activity testing, CDK2 inhibition assay (Caliper EZ Reader II); type: biochemical; details: CDK2/cyclinE1 0.5 nM, 180 min at 27° C.
# Procedure, shortened: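 CDK2/cyclinE1 (0.5 nM) phosphorylated 5-FAM-CDK7tide (2 μM) in MES buffer pH 6.5 with MgCl2, Tween 20 and BSA. Substrate and product were separated electrophoretically on a Caliper EZ Reader II. IC50 values came from nonlinear dose-response fits.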
# [1] = biological target: T1, CDK12 (aa686-1082)/cyclinK complex (Homo sapiens, UniProt Q9NYV4); experiment: In-vitro enzymatic inhibitory activity testing, CDK12 inhibition assay (Caliper EZ Reader II); type: biochemical; details: CDK12/cyclinK 50 nM, 180 min at 27° C.; read-out: CDK12 IC50
# T1 construct: A CDK12 (aa686-1082)/cyclinK complex (50 nM)
# T1 sequence (Q9NYV4 686-1082, species assumed): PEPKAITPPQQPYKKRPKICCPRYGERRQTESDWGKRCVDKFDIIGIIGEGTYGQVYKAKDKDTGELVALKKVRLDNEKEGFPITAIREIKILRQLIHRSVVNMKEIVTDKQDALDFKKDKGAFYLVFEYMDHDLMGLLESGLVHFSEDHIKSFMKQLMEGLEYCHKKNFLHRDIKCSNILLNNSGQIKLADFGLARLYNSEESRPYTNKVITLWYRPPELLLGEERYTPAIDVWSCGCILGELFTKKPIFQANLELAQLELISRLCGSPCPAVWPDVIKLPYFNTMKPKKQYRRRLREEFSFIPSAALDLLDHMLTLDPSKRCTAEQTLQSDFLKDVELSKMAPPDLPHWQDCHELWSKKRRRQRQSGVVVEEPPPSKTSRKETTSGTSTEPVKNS
# T1 sequence (O75909 whole entry partner, species assumed, the tested form may be a part): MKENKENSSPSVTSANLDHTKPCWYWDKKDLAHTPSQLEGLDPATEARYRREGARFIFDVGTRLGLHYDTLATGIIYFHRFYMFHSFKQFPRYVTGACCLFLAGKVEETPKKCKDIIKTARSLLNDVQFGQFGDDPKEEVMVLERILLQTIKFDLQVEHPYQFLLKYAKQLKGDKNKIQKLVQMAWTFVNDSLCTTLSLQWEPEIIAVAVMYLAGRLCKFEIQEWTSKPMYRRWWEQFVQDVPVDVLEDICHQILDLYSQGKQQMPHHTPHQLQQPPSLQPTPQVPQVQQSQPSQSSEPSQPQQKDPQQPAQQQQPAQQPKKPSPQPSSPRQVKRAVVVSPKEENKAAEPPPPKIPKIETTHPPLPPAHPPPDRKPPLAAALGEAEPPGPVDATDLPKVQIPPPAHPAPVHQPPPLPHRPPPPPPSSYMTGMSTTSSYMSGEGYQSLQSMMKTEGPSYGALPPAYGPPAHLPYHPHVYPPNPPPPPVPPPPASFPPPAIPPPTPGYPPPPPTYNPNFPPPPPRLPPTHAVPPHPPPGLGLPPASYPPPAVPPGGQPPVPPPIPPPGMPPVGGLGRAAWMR
# Procedure, shortened: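 Caliper EZ Reader II mobility-shift separation of 5-FAM-CDK9tide substrate (2 μM) from phosphoproduct, using 50 nM CDK12 (aa686-1082)/cyclinK in 80 mM MES pH 6.5, 10 mM MgCl2, 0.01% Tween 20, 50 ug/mL BSA. Compound pre-incubated 10 min with enzyme, then substrate/ATP added for 180 min at 27° C; EDTA stop. IC50 by nonlinear dose-response regression.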
# ovarian cancer A2780 = experiment: Cell biological activity detection (CyQuant, 72 hours), A2780; type: cell-based, human; details: Homo sapiens, A2780, 72 h, A2780 cells, incubation for 72 hours
# Procedure, shortened: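 A2780 and HCC70 cells seeded at 2000/well in RPMI 1640 + 10% FBS, treated next day with 9-point compound dilutions (top 10 μM, 1:4; 0.2% DMSO) for 72 h at 37 °C. Cell number read by CyQuant Direct nucleic acid stain (ex 488 nm); IC50 from dose–response fit.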
pIC50 (CDK2/cyclinE1 complex),pIC50 [1],pIC50 (ovarian cancer A2780),SMILES
4.30 to 5.30,< 4.30,6.70 to 7.70,"CP(C)(=O)c1cccc2c(-c3nc(NC4(CO)CC(F)C4)ncc3C(F)(F)F)c[nH]c12 (stereo not drawn) [Compound 105, (3-(2-((3-fluoro-1-(hydroxymethyl)cyclobutyl)amino)-5-(trifluoromethyl)pyrimidin-4-yl)-1H-indole-7-yl)dimethylphosphine oxide]"
4.30 to 5.30,< 4.30,6.70 to 7.70,"CC(O)[C@H](C)Nc1ncc(C(F)(F)F)c(-c2c[nH]c3c(P(C)(C)=O)cccc23)n1 (single isomer, unassigned) [Compound 129]"
4.30 to 5.30,4.30 to 5.30,6.70 to 7.70,CP(C)(=O)c1cccc2c(-c3nc(N[C@@H]4CCC[C@H]4O)ncc3C(F)(F)F)c[nH]c12 [Compound 156]
5.30 to 6.70,< 4.30,> 7.70,C[C@@H](CO)Nc1ncc(C(F)(F)F)c(-c2c[nH]c3c(P(C)(C)=O)cc(F)cc23)n1 [Compound 158]
5.30 to 6.70,4.30 to 5.30,> 7.70,"C[C@@H](CO)Nc1ncc(C(F)(F)F)c(-c2c[nH]c3c(P(C)(C)=O)cccc23)n1 [Compound 82, (S)-(3-(2-((1-hydroxypropyl-2-yl)amino)-5-(trifluoromethyl)pyrimidin-4-yl)-1H-indole-7-yl)dimethylphosphine oxide]"
4.30 to 5.30,< 4.30,> 7.70,"CC(C)(CO)Nc1ncc(C(F)(F)F)c(-c2c[nH]c3c(P(C)(C)=O)cccc23)n1 [Compound 85, (3-(2-((1-hydroxy-2-methylpropan-2-yl)amino)-5-(trifluoromethyl)pyrimidin-4-yl)-1H-indole-7-yl)dimethylphosphine oxide]"
5.30 to 6.70,< 4.30,> 7.70,"CP(C)(=O)c1cccc2c(-c3nc(NC[C@H]4C[C@](C)(O)C4)ncc3C(F)(F)F)c[nH]c12 [Compound 127, (3-(2-(((trans-3-hydroxy-3-methylcyclobutyl)methyl)amino)-5-(trifluoromethyl)pyrimidin-4-yl)-1H-indole-7-yl)dimethylphosphine oxide]"
4.30 to 5.30,< 4.30,6.70 to 7.70,"CP(C)(=O)c1cccc2c(-c3nc(NC4(CO)CCC4)ncc3C(F)(F)F)c[nH]c12 [Compound 168, (3-(2-((1-(hydroxymethyl)cyclobutyl)amino)-5-(trifluoromethyl)pyrimidin-4-yl)-1H-indole-7-yl)dimethylphosphine oxide]"
